Test results from patent US20130122051A1, “Methods of preparing progesterone pharmaceutical compositions” (PHARMACEUTICS INTERNATIONAL, INC., priority 2011, published 2013).

Experiment: particle size measured using a MALVERN MASTERSIZER particle size analyzer
Format: physicochemical
Conditions: starting progesterone particles before milling
Procedure: Samples of each of the first, second, and third pass wet-milled progesterone compositions prepared under the various milling conditions are collected and the particle size (μm) is measured using a MALVERN MASTERSIZER particle size analyzer (Malvern Instruments, Westborough Mass.). Saturated, filtered, progesterone in sunflower oil is used as the diluent. “Initial” refers to unmilled progesterone suspension. “% Beads” refers to the volume of milling chamber filled with milling media (beads). “Input” refers to the pump setting. “Output” refers to the product (gm/min) received from the mill.

With `CC(=O)[C@H]1CC[C@H]2[C@@H]3CCC4=CC(=O)CC[C@]4(C)[C@H]3CC[C@]12C` [unmicronized progesterone, pregn-4-ene-3,20-dione] the D90 was 220 μm.
